Data set [1] has as its system Jurkat cells. The experiment in a line: Apoptosis assay (active Caspase 3/7 by FAM-DEVD-FMK probe, flow cytometry). Particulars: Jurkat cell line; for caspase dependence: effects in presence of zVAD-FMK (in words): 100µM zVAD-FMK, Example 4 at 5mM; for pro-apoptotic effect (in words) / EC50: 48 hours of treatment; for pro-apoptotic effect (in words): Example 3: 30mM and 10mM; for EC50: Homo sapiens, pro-apoptotic effects. The format is cell-based. The protocol:
This study was performed using the following cell line on the two types of experiments performed: • Experiment 1: Study of the effects of compounds of Examples 3 and 4 according to the invention on apoptosis and cell proliferation: • o Jurkat: acute T cell leukemia • Experiment 2: Study of the caspase dependency of cell death induced by the compounds of Example 3 and 4 according to the invention. • o Jurkat: acute T cell leukemia Apoptosis was quantified at the single cell level by titrating active Caspase 3/7. This assay is based on the strong affinity of the FAM-DEVD-FMK peptide (carboxyfluorescein-labeled fluoromethyl ketone) for the catalytic site of the protease. When added to a cell culture, the FAM-DEVD-FMK probe enters cells and covalently binds to the large subunit of the active caspase 3/7. The bound labelled peptide remains within the cytosolic compartment, while the unbound peptides are drained off from the cell. The probe emits a green fluorescent signal which allows a direct measure of the amount of active caspase 3/7 present in the cell. All the conditions were performed in triplicate. Detection of cellular events was performed in triplicate in 96 well-plates after 48 hours of treatment by automated flow cytometry. Non-linear regressions and IC50 calculation were performed with GraphPad Prism 4.01 software. Briefly the time course of the experiments was the following: • o day 1 : seeding of cells in 96 well-plates. • o day 2 : treatment with compounds. • o day 4 : analysis at 48h-treatment. […] Effects of the two compounds of Examples 3 and 4 on apoptosis and cell proliferation in the Jurkat cell line: • The cells were labeled for subsequent cell proliferation measurements and plated in 96 well culture plates in standard culture conditions. • 24 hours after plating, the cells were treated with the two compounds of Examples 3 and 4. Experiment 2: […] zVad-FMK is a cell-permeant pan caspase inhibitor that irreversibly binds to the catalytic site of caspase proteases and can inhibit induction of apoptosis.

The nature of data set [2]: Solubility in solvents (qualitative). The format is physicochemical. Particulars: solvents as named in the value.
Data set [3] deals with Jurkat cells. The experiment in a line: Cell proliferation assay (dilution of fluorescent membrane marker, flow cytometry). Conditions: for IC50: Homo sapiens, Jurkat, 48 h; for anti-proliferative effect (in words): Jurkat cell line, 48 hours of treatment, without zVAD, Example 3: 30mM and 10mM. The format is cell-based. The protocol:
This study was performed using the following cell line on the two types of experiments performed: • Experiment 1: Study of the effects of compounds of Examples 3 and 4 according to the invention on apoptosis and cell proliferation: • o Jurkat: acute T cell leukemia • Experiment 2: Study of the caspase dependency of cell death induced by the compounds of Example 3 and 4 according to the invention. • o Jurkat: acute T cell leukemia This assay is based on the dilution rate of a fluorescent membrane marker which is a direct function of cell division. This probe is non toxic and allows the multiplexed detection of other parameters on the same cell population. The assay is performed by loading the cells with a fluorescent phospholipid analogue before plating. […] Subsequently, Flow cytometry analyzes the dilution rate of the fluorescent probe at the single cell level which is a direct readout of the number of cell divisions. All the conditions were performed in triplicate. Detection of cellular events was performed in triplicate in 96 well-plates after 48 hours of treatment by automated flow cytometry. Non-linear regressions and IC50 calculation were performed with GraphPad Prism 4.01 software. Briefly the time course of the experiments was the following: • o day 1 : seeding of cells in 96 well-plates. • o day 2 : treatment with compounds. • o day 4 : analysis at 48h-treatment. […] Effects of the two compounds of Examples 3 and 4 on apoptosis and cell proliferation in the Jurkat cell line: • The cells were labeled for subsequent cell proliferation measurements and plated in 96 well culture plates in standard culture conditions. • 24 hours after plating, the cells were treated with the two compounds of Examples 3 and 4. Experiment 2: […]

The mark [4] stands for this setting: +100µM zVAD, read-out: EC50 (+100µM zVAD).
The mark [5] stands for this setting: without zVAD, read-out: EC50 (without zVAD).

Like-named read-outs stand apart in the source and are kept apart here.

With `C[C@H](NC(=O)CCCc1ccccc1)C(=O)OCCOC(=O)[C@@H](C)NC(=O)CCCc1ccccc1` [Example 4], the “caspase dependence: effects in presence of zVAD-FMK (in words)” value (“caspase dependence: effects in presence” below) with Jurkat cells [1] was “no apoptosis was observed”. Besides, the “pro-apoptotic effect (in words)” value with Jurkat cells [1] (without zVAD) is reported as “able to induce apoptosis only at the highest concentration tested (5mM)”. In addition, in data set [2], the “solubility (in words)” value is “soluble in dichloromethane, ethyl acetate and acetonitrile”. The IC50 with Jurkat cells [3] (read-out: IC50 (without zVAD)) worked out at 9 mM. In the data set with Jurkat cells [3], the “anti-proliferative effect (in words)” value is recorded as “concentration dependent anti-proliferative effect”.

In the case of `CC(NC(=O)CCCc1ccccc1)C(=O)O` (centres unmarked) [Example 3, 2-(4-Phenyl-butyrylamino)-propionic acid], the EC50 worked out at 13 mM in the data set on Jurkat cells [1] (setting [4]) and 6.4 mM in the data set with Jurkat cells [1] (setting [5]). Moreover, in the data set on Jurkat cells [1], the “caspase dependence: effects in presence” value is listed as “sensitive to 100µM zVAD-fmk”. The “pro-apoptotic effect (in words)” value in the data set with Jurkat cells [1] (without zVAD) is reported as “pro-apoptotic”. In addition, the “solubility (in words)” value in data set [2] was “soluble in alcohols (ethanol and methanol) as well as in acetic acid”. In addition, the concentration for half-maximal inhibition (IC50) amounted to 4.3 mM in the data set on Jurkat cells [3] (read-out: IC50 (+100µM zVAD)) and 3.2 mM with Jurkat cells [3] (read-out: IC50 (without zVAD)). The “anti-proliferative effect (in words)” value with Jurkat cells [3] is reported as “anti-proliferative effects”.

Take `CN[C@@H]1C[C@H]2O[C@@](C)([C@@H]1OC)n1c3ccccc3c3c4c(c5c6ccccc6n2c5c31)C(=O)NC4` [STS, Staurosporine, reference compound]: in the data set on Jurkat cells [1] (setting [5]), the concentration giving a half-maximal response (EC50) came out at 2.3e-05 mM. The figures for the half-inhibitory concentration (IC50) in the data set on Jurkat cells [3] (read-out: IC50 (+100µM zVAD)) and with Jurkat cells [3] (read-out: IC50 (without zVAD)) were 1.1e-05 mM and 1.2e-05 mM, respectively.

As for `O=C(O)CCCc1ccccc1` [Example 4-PB, 4-Phenylbutyric acid, reference compound], the EC50 in the data set on Jurkat cells [1] (setting [4]) was 10 mM; in the data set on Jurkat cells [1] (setting [5]), 3.2 mM. Further, in the data set on Jurkat cells [1], the “caspase dependence: effects in presence” value is “well inhibited by zVAD-FMK”. The “pro-apoptotic effect (in words)” value with Jurkat cells [1] (without zVAD) is “able to elicit apoptosis”. Besides, the IC50 in the data set with Jurkat cells [3] (read-out: IC50 (+100µM zVAD)) was 2.2 mM; in the data set with Jurkat cells [3] (read-out: IC50 (without zVAD)), 2.6 mM. In addition, in the data set with Jurkat cells [3], the “anti-proliferative effect (in words)” value is listed as “inhibit proliferation”.

The values above are taken from EP2599767A1, “Phenylbutyl-derivatives” (Lunamed AG, priority 2011, dated 2013).
